Reference: patent US20040259875A1, “Amine derivatives” (priority 2001, published 2004)

Molecular target: T1, human VR1 (Homo sapiens, UniProt Q8NER1)
T1 construct: expressed in transfected cells
Test: Capsaicin-induced Ca2+ influx in the human VR1-transfected CHO cell line (Assay 1)
Type: cell-based
Conditions: capsaicin-induced Ca2+ flux; compounds or the salt thereof (e.g., potassium salt); purity about 40 to 90%
Description: [Measurement of Capsaicin-induced Ca^2+ Influx in the Human VR1-transfected CHO Cell Line] (Assay 1)
(1) Establishment of the human VR1-CHOluc9aeq cell line
Human vanilloid receptor (hVR1) cDNA was cloned from libraries of axotomized dorsal root ganglia (WO2000/29577). The cloned hVR1 cDNA was constructed with pcDNA3 vector and transfected into a CHOluc9aeq cell line. The cell line contains aequorin and CRE-luciferase reporter genes as read-out signals. The transfectants were cloned by limiting dilution in selection medium (DMEM/F12 medium (Gibco BRL) supplemented with 10% FCS, 1.4 mM Sodium pyruvate, 20 mM HEPES, 0.15% Sodium bicarbonate, 100 U/ml penicillin, 100 μ/ml streptomycin, 2 mM glutamine, non-essential amino acids and 2 mg/ml G418). Ca^2+ influx was examined in the capsaicin-stimulated clones. […] The human VR1-CHOluc9aeq cells were maintained in the selection medium and passaged every 3-4 days at 1-2.5×10^5 cells/flask ([…])
(2) Measurement of Ca^2+ influx using FDSS-3000
Human VR1-CHOluc9aeq cells were suspended in a culture medium which is the same as the selection medium except for G418 and seeded at a density of 1,000 cells per well into 384-well plates (black walled clear-base/Nalge Nunc International). Following the culture for 48 hrs the medium was changed to 2 μM Fluo-3 AM (Molecular Probes) and 0.02% Puronic F-127 in assay buffer (Hank's balanced salt solution (HBSS), 17 mM HEPES (pH7.4), 1 mM Probenecid, 0.1% BSA) and the cells were incubated for 60 min at 25° C. After washing twice with assay buffer the cells were incubated with a test compound or vehicle for 20 min at 25° C. Mobilization of cytoplasmic Ca^2+ was measured by FDSS-3000 (λex=488 nm, λem=540 nm/Hamamatsu Photonics) for 60 sec after the stimulation with 10 nM of capsaicin (Nacalai Tesque). Integral R of the fluorescence changes was calculated in the samples treated with a test compound and vehicle respectively. Inhibitory effect of the compound was calculated by a comparison of the integral R values.

T1 sequence (Q8NER1 whole entry): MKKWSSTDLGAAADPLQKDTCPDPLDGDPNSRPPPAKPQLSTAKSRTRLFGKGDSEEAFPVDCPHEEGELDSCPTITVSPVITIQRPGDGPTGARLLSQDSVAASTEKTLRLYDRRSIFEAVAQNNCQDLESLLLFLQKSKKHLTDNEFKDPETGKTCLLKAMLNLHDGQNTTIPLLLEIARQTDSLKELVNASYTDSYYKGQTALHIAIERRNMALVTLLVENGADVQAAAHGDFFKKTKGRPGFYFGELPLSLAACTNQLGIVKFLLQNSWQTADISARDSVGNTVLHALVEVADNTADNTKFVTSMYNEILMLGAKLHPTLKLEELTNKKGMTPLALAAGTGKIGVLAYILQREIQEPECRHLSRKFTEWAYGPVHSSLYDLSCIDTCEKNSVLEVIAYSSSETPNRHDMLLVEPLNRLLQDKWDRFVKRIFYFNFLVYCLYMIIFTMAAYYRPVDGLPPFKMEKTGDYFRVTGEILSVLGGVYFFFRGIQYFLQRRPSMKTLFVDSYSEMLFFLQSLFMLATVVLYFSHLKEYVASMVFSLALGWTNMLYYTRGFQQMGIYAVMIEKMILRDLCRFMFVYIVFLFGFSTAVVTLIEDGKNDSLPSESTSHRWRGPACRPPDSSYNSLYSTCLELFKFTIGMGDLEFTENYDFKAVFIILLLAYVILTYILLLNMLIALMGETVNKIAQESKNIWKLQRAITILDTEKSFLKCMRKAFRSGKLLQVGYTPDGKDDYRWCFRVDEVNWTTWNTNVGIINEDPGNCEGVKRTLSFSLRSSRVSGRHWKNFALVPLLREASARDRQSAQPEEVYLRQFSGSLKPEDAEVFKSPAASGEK

Structure (SMILES) | IC50 [nM]
CCOC(=O)c1cccc(NC(=O)Nc2c(Cl)cc(Cl)c3ccc(O)cc23)c1 [ethyl 3-({[(2,4-dichloro-7-hydroxy-1-naphthyl)amino]carbonyl}amino)benzoate] | ≤ 10
O=C(Nc1ccc(F)c(C(F)(F)F)c1)Nc1c(Cl)cc(Cl)c2ccc(O)cc12 [N-(2,4-dichloro-7-hydroxy-1-naphthyl)-N′-[4-fluoro-3-(trifluoromethyl)phenyl]urea] | ≤ 10
O=C(Nc1ccc(Cl)c(C(F)(F)F)c1)Nc1c(Br)cc(Br)c2ccc(O)cc12 [N-[4-chloro-3-(trifluoromethyl)phenyl]-N′-(2,4-dibromo-7-hydroxy-1-naphthyl)urea] | ≤ 10
O=C(Nc1ccc(C(F)(F)F)cc1)Nc1cccc2ccc(O)cc12 [N-(7-hydroxy-1-naphthyl)-N′-[4-(trifluoromethyl)phenyl]urea] | ≤ 10
O=C(Nc1cccc(Cl)c1)Nc1c(Br)cc(Br)c2ccc(O)cc12 [N-(3-chlorophenyl)-N′-(2,4-dibromo-7-hydroxy-1-naphthyl)urea] | ≤ 10
O=C(Nc1cccc(C(F)(F)F)c1)Nc1c(Cl)cc(Cl)c2ccc(O)cc12 [N-(2,4-dichloro-7-hydroxy-1-naphthyl)-N′-[3-(trifluoromethyl)phenyl]urea] | ≤ 10
Cc1cc(Cl)c(NC(=O)Nc2ccc(Cl)c(C(F)(F)F)c2)c2cc(O)ccc12 [N-(2-chloro-7-hydroxy-4-methyl-1-naphthyl)-N′-[4-chloro-3-(trifluoromethyl)phenyl]urea] | ≤ 10
O=C(Nc1ccc(Cl)c(C(F)(F)F)c1)Nc1c(Cl)cc(Br)c2ccc(O)cc12 [N-(4bromo-2-chloro-7-hydroxy-1-naphthyl)N′-[4-chloro-3-(trifluoromethyl)phenyl]urea] | ≤ 10
O=C(Nc1ccc(Cl)c(C(F)(F)F)c1)Nc1c(Cl)cc(Cl)c2ccc(O)cc12 [N-[4-chloro-3-(trifluoromethyl)phenyl]-N′-(2,4-dichloro-7-hydroxy-1-naphthyl)urea] | ≤ 10
Cc1ccc(NC(=O)Nc2ccc(Cl)c(C(F)(F)F)c2)c2cc(O)ccc12 [N-[4-chloro-3-(trifluoromethyl)phenyl]-N′-(7-hydroxy-4-methyl-1-naphthyl)urea] | ≤ 10

Now from value to molecule:

IC50 [nM] | Structure (SMILES)
≤ 10 | O=C(Nc1ccc(Oc2ccccc2)cc1)Nc1cccc2ccc(O)cc12 [N-(7-hydroxy-1-naphthyl)-N′-(4-phenoxyphenyl)urea]
≤ 10 | O=C(Nc1ccc2ccccc2c1)Nc1c(Cl)cc(Cl)c2ccc(O)cc12 [N-(2,4-dichloro-7-hydroxy-1-naphthyl)-N′-(2-naphthyl)urea]
≤ 10 | O=C(Nc1cccc(-c2ccccc2)c1)Nc1cccc2ccc(O)cc12 [N-(1,1′-biphenyl-3-yl)-N′-(7-hydroxy-1-naphthyl)urea]
≤ 10 | O=C(Nc1cccc(-c2ccccc2)c1)Nc1c(Cl)ccc2ccc(O)cc12 [N-(1,1′-biphenyl-3-yl)-N′-(2-chloro-7-hydroxy-1-naphthyl)urea]
≤ 10 | O=C(Nc1ccc(Cl)c(C(F)(F)F)c1)Nc1c(Cl)ccc2ccc(O)cc12 [N-(2-chloro-7-hydroxy-1-naphthyl)-N′-[4-chloro-3-(trifluoromethyl)phenyl]urea]
≤ 10 | O=C(Nc1ccc(Oc2ccc(Cl)cc2)cc1)Nc1cccc2ccc(O)cc12 [N-[4-(4-chlorophenoxy)phenyl]-N′-(7-hydroxy-1-naphthyl)urea]
≤ 10 | O=C(NCc1ccc(Br)cc1)Nc1c(Cl)ccc2ccc(O)cc12 [N-(4-bromobenzyl)-N′-(2-chloro-7-hydroxy-1-naphthyl)urea]
≤ 10 | O=C(Nc1cccc(Oc2ccccc2)c1)Nc1cccc2ccc(O)cc12 [N-(7-hydroxy-1-naphthyl)-N′-(3-phenoxyphenyl)urea]
≤ 10 | O=C(Nc1cccc(-c2ccccc2Cl)c1)Nc1c(Cl)cc(Cl)c2ccc(O)cc12 [N-(2′-chloro-1,1′-biphenyl-3-yl)-N′-(2,4-dichloro-7-hydroxy-1-naphthyl)urea]
